Results on six molecules are retold here after patent publication US20200354426A1 (MEDIMMUNE LIMITED, priority 2016, published 2020).

What all share (test): cAMP activity assay in assay medium (assay 1)
What all share (type): cell-based

Assay [1] has as its target T1, Human GIPr (Homo sapiens, UniProt P48546).
T1 construct: expressed in transfected cells
T1 sequence (P48546 22-466): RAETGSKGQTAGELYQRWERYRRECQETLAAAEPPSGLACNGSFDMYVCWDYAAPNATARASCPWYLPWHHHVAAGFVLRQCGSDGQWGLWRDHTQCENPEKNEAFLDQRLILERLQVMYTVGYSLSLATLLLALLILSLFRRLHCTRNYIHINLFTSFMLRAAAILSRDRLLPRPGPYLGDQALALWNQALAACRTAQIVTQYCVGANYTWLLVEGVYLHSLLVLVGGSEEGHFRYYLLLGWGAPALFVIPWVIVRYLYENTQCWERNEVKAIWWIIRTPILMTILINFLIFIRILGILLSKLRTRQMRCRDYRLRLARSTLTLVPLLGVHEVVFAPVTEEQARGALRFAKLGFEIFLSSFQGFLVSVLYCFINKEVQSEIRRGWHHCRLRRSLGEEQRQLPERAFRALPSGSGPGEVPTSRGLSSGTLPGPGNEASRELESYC
Particulars: assay medium; Table 4; read-out: hGIPR EC50. From the text:
(§1) Biological Activity of Peptides in Cell-Based cAMP Activity Assay (Assay 1):
(§2) All sample dilutions were made in duplicate.

For assay [2], the target named is T2, Human GlucR (Homo sapiens, UniProt P47871).
T2 construct: expressed in transfected cells
Particulars: assay medium; Table 4; read-out: hGlucR EC50.
From the text: as §1, §2

In assay [3] the target is Human GLP1R (Homo sapiens, UniProt P43220). Details: expressed in transfected cells. Particulars: assay medium; Table 4; read-out: hGLP1R EC50.
From the text: as §1, §2

Numbered stars: 1 amine (or outer) side, 2 acyl side, 3 side chain; on linkers, the order of the positions; unused ones are H or OH. Side chains are listed from the residue outwards. Peptide text beside a SMILES is read from it. * marks the point of attachment. γGlu = O=C(O)[C@H](CCC(=O)[*:2])N[*:1]; Palmitoyl = CCCCCCCCCCCCCCCC(=O)*; Ahx = NCCCCCC(=O)O; βAla = NCCC(=O)O

T2 sequence (P47871 26-477): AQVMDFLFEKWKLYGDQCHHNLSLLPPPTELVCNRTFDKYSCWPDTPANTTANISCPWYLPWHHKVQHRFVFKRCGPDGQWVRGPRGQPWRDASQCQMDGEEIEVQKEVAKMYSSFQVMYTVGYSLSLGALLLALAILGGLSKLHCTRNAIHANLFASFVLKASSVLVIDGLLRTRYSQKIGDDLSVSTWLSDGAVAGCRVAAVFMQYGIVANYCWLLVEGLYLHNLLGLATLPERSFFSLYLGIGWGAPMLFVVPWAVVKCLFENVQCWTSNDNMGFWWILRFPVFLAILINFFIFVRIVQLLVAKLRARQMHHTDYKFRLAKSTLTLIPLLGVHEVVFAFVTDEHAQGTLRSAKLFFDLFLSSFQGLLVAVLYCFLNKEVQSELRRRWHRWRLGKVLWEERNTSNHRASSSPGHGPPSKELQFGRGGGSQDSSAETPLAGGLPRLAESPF
Sequence of Human GLP1R (P43220 24-463): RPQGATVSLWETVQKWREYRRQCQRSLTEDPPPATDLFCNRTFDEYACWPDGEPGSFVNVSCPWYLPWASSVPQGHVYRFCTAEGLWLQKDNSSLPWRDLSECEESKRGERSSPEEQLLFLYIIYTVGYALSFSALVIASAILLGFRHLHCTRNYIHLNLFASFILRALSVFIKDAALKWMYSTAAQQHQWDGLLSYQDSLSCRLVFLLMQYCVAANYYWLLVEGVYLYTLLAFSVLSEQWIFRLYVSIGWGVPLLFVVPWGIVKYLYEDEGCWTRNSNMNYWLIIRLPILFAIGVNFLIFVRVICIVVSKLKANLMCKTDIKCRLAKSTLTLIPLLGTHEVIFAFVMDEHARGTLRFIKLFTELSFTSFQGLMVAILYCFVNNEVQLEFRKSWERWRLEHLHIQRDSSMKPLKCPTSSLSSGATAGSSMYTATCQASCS

For orientation: EC50 means the concentration needed to bring the measured effect to its halfway point. In the case of `CCCCCCCCCCCCCCCC(=O)N[C@@H](CCC(=O)NCCCC[C@H](NC(=O)[C@H](Cc1ccc(O)cc1)NC(=O)[C@H](CCCCN)NC(=O)[C@H](CO)NC(=O)[C@H](Cc1ccc(O)cc1)NC(=O)[C@H](CC(=O)O)NC(=O)[C@H](CO)NC(=O)[C@@H](NC(=O)[C@H](Cc1ccccc1)NC(=O)[C@@H](NC(=O)CNC(=O)[C@H](CCC(N)=O)NC(=O)[C@H](CO)NC(=O)[C@@H](N)Cc1c[nH]cn1)[C@@H](C)O)[C@@H](C)O)C(=O)N[C@@H](CC(=O)O)C(=O)N[C@@H](CO)C(=O)N[C@@H](CCC(=O)O)C(=O)N[C@@H](CCCNC(=N)N)C(=O)N[C@@H](C)C(=O)N[C@@H](CCCNC(=N)N)C(=O)N[C@@H](CC(=O)O)C(=O)N[C@@H](Cc1ccccc1)C(=O)N[C@H](C(=O)N[C@@H](C)C(=O)N[C@@H](Cc1c[nH]c2ccccc12)C(=O)N[C@@H](CC(C)C)C(=O)N[C@H](C(=O)N[C@@H](C)C(=O)NCC(=O)NCC(N)=O)C(C)C)C(C)C)C(=O)O` [g777] (H-HSQGTFTSDYSKYK([γGlu-Palmitoyl])DSERARDFVAWLVAGG-NH2; N-terminus assumed), the EC50 in assay [1] is 4.53 nM; in assay [2], 0.00124 nM; in assay [3] it was 0.0274 nM.

As to `CCCCCCCCCCCCCCCC(=O)N[C@@H](CCC(=O)NCCCC[C@H](NC(=O)[C@H](CC(=O)O)NC(=O)[C@H](CC(C)C)NC(=O)[C@H](Cc1ccc(O)cc1)NC(=O)[C@H](CCCCN)NC(=O)[C@H](CO)NC(=O)[C@H](Cc1ccc(O)cc1)NC(=O)[C@H](CC(=O)O)NC(=O)[C@H](CO)NC(=O)[C@@H](NC(=O)[C@H](Cc1ccccc1)NC(=O)[C@@H](NC(=O)CNC(=O)[C@H](CCC(N)=O)NC(=O)[C@H](CO)NC(=O)[C@@H](N)Cc1c[nH]cn1)[C@@H](C)O)[C@@H](C)O)C(=O)N[C@@H](CCCNC(=N)N)C(=O)N[C@@H](CCCNC(=N)N)C(=O)N[C@@H](C)C(=O)N[C@@H](CCCNC(=N)N)C(=O)N[C@@H](CC(=O)O)C(=O)N[C@@H](Cc1ccccc1)C(=O)N[C@H](C(=O)N[C@@H](C)C(=O)N[C@@H](Cc1c[nH]c2ccccc12)C(=O)N[C@@H](CC(C)C)C(=O)N[C@@H](CCC(=O)O)C(=O)N[C@@H](C)C(=O)NCC(=O)NCC(N)=O)C(C)C)C(=O)O` [g781] (H-HSQGTFTSDYSKYLDK([γGlu-Palmitoyl])RRARDFVAWLEAGG-NH2; N-terminus assumed), the EC50 was found to be 402 nM in assay [1], 0.00285 nM in assay [2] and 0.104 nM in assay [3].

Consider `CCCCCCCCCCCCCCCC(=O)N[C@@H](CCC(=O)NCCCC[C@H](NC(=O)[C@H](CCCNC(=N)N)NC(=O)[C@H](CO)NC(=O)[C@H](CC(=O)O)NC(=O)[C@H](CC(C)C)NC(=O)[C@H](Cc1ccc(O)cc1)NC(=O)[C@H](CCCCN)NC(=O)[C@H](CO)NC(=O)[C@H](Cc1ccc(O)cc1)NC(=O)[C@H](CC(=O)O)NC(=O)[C@H](CO)NC(=O)[C@@H](NC(=O)[C@H](Cc1ccccc1)NC(=O)[C@@H](NC(=O)CNC(=O)[C@H](CCC(N)=O)NC(=O)[C@H](CO)NC(=O)[C@@H](N)Cc1c[nH]cn1)[C@@H](C)O)[C@@H](C)O)C(=O)N[C@@H](C)C(=O)N[C@@H](CCCNC(=N)N)C(=O)N[C@@H](CC(=O)O)C(=O)N[C@@H](Cc1ccccc1)C(=O)N[C@H](C(=O)N[C@@H](C)C(=O)N[C@@H](Cc1c[nH]c2ccccc12)C(=O)N[C@@H](CC(C)C)C(=O)N[C@@H](CCC(=O)O)C(=O)N[C@@H](C)C(=O)NCC(=O)NCC(N)=O)C(C)C)C(=O)O` [g782] (H-HSQGTFTSDYSKYLDSRK([γGlu-Palmitoyl])ARDFVAWLEAGG-NH2; N-terminus assumed), for which the EC50 in assay [1] was 1430 nM; in assay [2], 0.156 nM; in assay [3] it was 0.0254 nM.

As to `CCCCCCCCCCCCCCCC(=O)NCCC(=O)NCCCC[C@H](NC(=O)[C@H](CO)NC(=O)[C@H](CC(=O)O)NC(=O)[C@H](CC(C)C)NC(=O)[C@H](Cc1ccc(O)cc1)NC(=O)[C@H](CCC(=O)O)NC(=O)[C@H](CO)NC(=O)[C@H](Cc1ccc(O)cc1)NC(=O)[C@H](CC(=O)O)NC(=O)[C@H](CO)NC(=O)[C@@H](NC(=O)[C@H](Cc1ccccc1)NC(=O)[C@@H](NC(=O)CNC(=O)[C@H](CCC(N)=O)NC(=O)[C@H](CO)NC(=O)[C@@H](N)Cc1c[nH]cn1)[C@@H](C)O)[C@@H](C)O)C(=O)N[C@@H](CCCNC(=N)N)C(=O)N[C@@H](C)C(=O)N[C@@H](CCCNC(=N)N)C(=O)N[C@@H](CC(=O)O)C(=O)N[C@@H](Cc1ccccc1)C(=O)N[C@H](C(=O)N[C@@H](C)C(=O)N[C@@H](Cc1c[nH]c2ccccc12)C(=O)N[C@@H](CC(C)C)C(=O)N[C@@H](CCC(=O)O)C(=O)N[C@@H](C)C(=O)NCC(=O)NCC(N)=O)C(C)C` [g783] (H-HSQGTFTSDYSEYLDSK([βAla-Palmitoyl])RARDFVAWLEAGG-NH2; N-terminus assumed), the concentration for a half-maximal effect (EC50) in assay [1] is 846 nM; in assay [2], 0.0911 nM; in assay [3] it was 0.0424 nM.

For `CCCCCCCCCCCCCCCC(=O)NCCCCCC(=O)NCCCC[C@H](NC(=O)[C@H](CO)NC(=O)[C@H](CC(=O)O)NC(=O)[C@H](CC(C)C)NC(=O)[C@H](Cc1ccc(O)cc1)NC(=O)[C@H](CCC(=O)O)NC(=O)[C@H](CO)NC(=O)[C@H](Cc1ccc(O)cc1)NC(=O)[C@H](CC(=O)O)NC(=O)[C@H](CO)NC(=O)[C@@H](NC(=O)[C@H](Cc1ccccc1)NC(=O)[C@@H](NC(=O)CNC(=O)[C@H](CCC(N)=O)NC(=O)[C@H](CO)NC(=O)[C@@H](N)Cc1c[nH]cn1)[C@@H](C)O)[C@@H](C)O)C(=O)N[C@@H](CCCNC(=N)N)C(=O)N[C@@H](C)C(=O)N[C@@H](CCCNC(=N)N)C(=O)N[C@@H](CC(=O)O)C(=O)N[C@@H](Cc1ccccc1)C(=O)N[C@H](C(=O)N[C@@H](C)C(=O)N[C@@H](Cc1c[nH]c2ccccc12)C(=O)N[C@@H](CC(C)C)C(=O)N[C@@H](CCC(=O)O)C(=O)N[C@@H](CCCNC(=N)N)C(=O)NCC(=O)NCC(N)=O)C(C)C` [g794] (H-HSQGTFTSDYSEYLDSK([Ahx-Palmitoyl])RARDFVAWLERGG-NH2; N-terminus assumed), the EC50 amounted to 32.2 nM in assay [1], 0.00469 nM in assay [2] and 0.0157 nM in assay [3].

Take `CCCCCCCCCCCCCCCC(=O)NCCC(=O)NCCCC[C@H](NC(=O)[C@H](CO)NC(=O)[C@H](CC(=O)O)NC(=O)[C@H](CC(C)C)NC(=O)[C@H](Cc1ccc(O)cc1)NC(=O)[C@H](CCC(=O)O)NC(=O)[C@H](CO)NC(=O)[C@H](Cc1ccc(O)cc1)NC(=O)[C@H](CC(=O)O)NC(=O)[C@H](CO)NC(=O)[C@@H](NC(=O)[C@H](Cc1ccccc1)NC(=O)[C@@H](NC(=O)CNC(=O)[C@H](CCC(N)=O)NC(=O)[C@H](CO)NC(=O)[C@@H](N)Cc1c[nH]cn1)[C@@H](C)O)[C@@H](C)O)C(=O)N[C@@H](CCCNC(=N)N)C(=O)N[C@@H](C)C(=O)N[C@@H](CCCNC(=N)N)C(=O)N[C@@H](CC(=O)O)C(=O)N[C@@H](Cc1ccccc1)C(=O)N[C@H](C(=O)N[C@@H](C)C(=O)N[C@@H](Cc1c[nH]c2ccccc12)C(=O)N[C@@H](CC(C)C)C(=O)N[C@@H](CCC(=O)O)C(=O)N[C@@H](CCCNC(=N)N)C(=O)NCC(=O)NCC(N)=O)C(C)C` [g795] (H-HSQGTFTSDYSEYLDSK([βAla-Palmitoyl])RARDFVAWLERGG-NH2; N-terminus assumed): the values for the EC50 in assay [1], in assay [2] and in assay [3] were 579 nM, 0.11 nM and 0.0734 nM, respectively.
